Results as given in PMC9318862, “Cytotoxic Effects on Breast Cancer Cell Lines of Chalcones Derived from a Natural Precursor and Their Molecular Docking Analysis” (Molecules, 2022).
Where two headings read alike, the source gives them in different places.

What was measured:
MCF-10F cells = experiment: Cytotoxic assay, IC50 in non-tumorigenic MCF-10F cells; assay type: cell-based, human; details: MCF-10F non-tumorigenic cells, mean ± SD, read-out: IC50 Cell Lines MCF-10F
Procedure: (§1) The cell culture methodology was used with modifications. Three human breast cancer cell lines were used for this study: MCF-7 (ATCC® HTB-22™), ZR-75-1 (ATCC® CRL-1500™), MDA-MB-231 (ATCC® HTB-26™), and the non-tumorigenic MCF-10F (ATCC® CRL-10318™) cell lines. Cells were cultured in specific media according to ATCC recommendations. The incubation condition was established at 37 °C, a complete humid atmosphere, 5% CO2 and 95% O2.
(§2) The cytotoxic effect of the chalcone compounds was assessed in MCF-10F cells in a dose- and time-dependent manner. Cells (1 × 10^4 and 4 × 10^4) cultured under normoxic conditions were seeded in 24-well plates in quadruplicate and incubated for 4 days until 70% confluence. After this incubation period, cells were exposed to concentrations of the synthesized compounds dissolved in ethanol (50%) at concentrations ranging from 0 to 96.8 µg/mL (dissolved in 0.5% DMSO). Doxorubicin was used as the control drug, and for all data a p < 0.05 value was considered statistically significant. Cell viability was assessed using a neutral red uptake assay after 24 h of treatment.

ZR-75-1 cells = experiment: Cytotoxic assay, IC50 in ZR-75-1 cells; assay type: cell-based; details: Homo sapiens, mean ± SD, read-out: IC50 Cell Lines ZR-75-1
MDA-MB-231 cells = experiment: Cytotoxic assay, IC50 in MDA-MB-231 cells; assay type: cell-based; details: Homo sapiens, mean ± SD, read-out: IC50 Cell Lines MDA-MB-231
Procedure: (§3) The cytotoxic activity of all the synthesized chalcones was tested against breast cancer cell lines using an MTT cell proliferation assay. All compounds were tested in vitro at 10 and 100 µM using the cell viability assay in MCF-7 for 24 h in normoxia (Table 1). Firstly, the cytotoxic effect of the chalcone compounds modified in ring B and with an unsubstituted ring A was tested (compounds 3–8). […] Secondly, compounds with modifications in the A and B rings (9–13) were tested.
as §1, §2

MCF-7 cells [1] = experiment: Cell viability of MCF-7 cells after treatment at 10 and 100 µM (MTT cell proliferation assay, 24 h, normoxia); assay type: cell-based; details: Homo sapiens, mean ± SD; for viability at 10 µM: MCF7, 10 µM; for viability at 100 µM: MCF7, 100 µM
Procedure: as §3
as §1, with “[…]. […]” for “O2.”

MCF-7 cells [2] = experiment: Cytotoxic assay, IC50 in MCF-7 cells; assay type: cell-based; details: Homo sapiens, MCF7, mean ± SD, read-out: IC50 Cell Lines MCF-7
MCF-7 cells [3] = system: MCF-7 cells; design: method as in PMID 27814565; details: read-out: IC50 on the growth of the MCF-7 cells; cited from earlier work

| Structure (SMILES) | IC50 (MCF-10F cells; Homo sapiens, MCF-10F) [µM] | IC50 (ZR-75-1 cells) [µM] | IC50 (MDA-MB-231 cells) [µM] | viability at 10 µM (MCF-7 cells [1]) [%] | viability at 100 µM (MCF-7 cells [1]) [%] | IC50 (MCF-7 cells [2]) [µM] | IC50 (MCF-7 cells [3]) [µM] | IC50 (MCF-10F cells) [µM] | IC50 (MCF-10F cells; Homo sapiens) [µM] |
| --- | --- | --- | --- | --- | --- | --- | --- | --- | --- |
| CN(C)c1ccc(/C=C/C(=O)c2ccccc2)cc1 [Compound 5] | > 80 | 76.5 ± 12.6 | 79.8 ± 9.31 | 47.6 ± 3.2 | 52.4 ± 4.3 | > 80 |  |  |  |
| C=C(C)C(O)Cc1c(O)ccc(C(=O)/C=C/c2ccc(O)c(CC=C(C)C)c2)c1O (stereo not shown) [Paratocarpin E] |  |  |  |  |  |  | 19.6 |  |  |
| CC(C)=CCc1cc(C(=O)/C=C/c2ccccc2)ccc1O [Compound 9] | > 80 | > 80 | > 80 | 93.8 ± 7.9 | 82.5 ± 6.1 | > 80 |  |  |  |
| CC(C)=CCc1cc(C(=O)/C=C/c2ccc(N(C)C)cc2)ccc1O [Compound 11] | 78.4 ± 21.3 | 78.2 ± 6.87 | 72.3 ± 2.33 | 42 ± 4.3 | 42.4 ± 3.9 | > 80 |  |  |  |
| COc1cc(/C=C/C(=O)c2ccccc2)ccc1O [Compound 6] | 72.6 ± 10.3 | 43.2 ± 6.58 | 52 ± 4.53 | 47 ± 4.9 | 4.9 ± 0.6 | 21.6 ± 2.71 |  |  |  |
| COc1cc(/C=C/C(=O)c2ccc(O)c(CC=C(C)C)c2)ccc1O [Compound 12, (E)-1-(4-hydroxy-3-(3-methylbut-2-en-1-yl)phenyl)-3-(4-hydroxy-3-methoxyphenyl)prop-2-en-1-one] | 95.8 ± 1.52 | 9.4 ± 1.74 | 6.12 ± 0.84 | 10.3 ± 0.6 | 3.6 ± 0.9 | 4.19 ± 1.04 |  | 75.8 ± 11.5 |  |
| O=C(/C=C/c1ccc2c(c1)OCO2)c1ccccc1 [Compound 7] | > 80 | > 80 | > 80 | 43.5 ± 3.4 | 38.6 ± 4.3 | > 80 |  |  |  |
| COc1ccc(/C=C/C(=O)c2ccccc2)cc1 [Compound 4] |  | > 80 | > 80 | 74.5 ± 10.3 | 55.1 ± 5.1 | > 80 |  |  | > 80 |
| COc1cc(OC)c(OC)cc1/C=C/C(=O)c1ccccc1 [Compound 8] | > 80 | > 80 | > 80 | 100 ± 12.6 | 94.4 ± 11.6 | > 80 |  |  |  |
| O=C(/C=C/c1ccccc1)c1ccccc1 [Compound 3] | > 80 | > 80 | > 80 | 81.3 ± 9.4 | 65.2 ± 5.7 | > 80 |  |  |  |
| COc1cccc2c1C(=O)c1c(O)c3c(c(O)c1C2=O)C[C@@](O)(C(=O)CO)C[C@@H]3O[C@H]1C[C@H](N)[C@H](O)[C@H](C)O1 [Doxorubicin, reference compound] | 83.9 ± 8.99 | 79.8 ± 11 | 47.6 ± 5.74 | 49.3 ± 2.2 | 57.6 ± 2.9 | 111 ± 8.95 |  |  |  |
| COc1cc(OC)c(OC)cc1/C=C/C(=O)c1ccc(O)c(CC=C(C)C)c1 [Compound 13] | 95.1 ± 1.97 | 8.75 ± 2.01 | 18.1 ± 1.65 | 32.4 ± 4.5 | 3.1 ± 0.4 | 3.3 ± 0.92 |  | 75.1 ± 12 |  |
| COc1ccc(/C=C/C(=O)c2ccc(O)c(CC=C(C)C)c2)cc1 [Compound 10] | > 80 | > 80 | 78 ± 4.34 | 73.7 ± 6.7 | 62.3 ± 7.6 | > 80 |  |  |  |
| CC(=O)c1ccc(O)c(CC=C(C)C)c1 [Compound 1b] | 79.5 ± 9.9 | 61.6 ± 14.1 | 74 ± 8.72 |  |  | 79.4 ± 12.2 |  |  |  |
